# From patent US20250115581A1, “SUBSTITUTED PIPERIDINES AS CK1A DEGRADERS” (Monte Rosa Therapeutics, Inc., priority 2022, published 2025)
# What was measured:
# [1] = Mouse oral PK at 10 mg/kg; format: in vivo, Male BALB/c mice; conditions: male, BALB/c, plasma
# Procedure: Male BALB/c mice were fasted overnight and administered a discrete, oral (PO) dose of Compound 107 or Compound 125 at 10 mg/kg.
# Blood samples were collected serially from three animals/time-point following PO administration of the test compounds to the mice and placed in tubes containing K2EDTA. The blood samples were centrifuged, and the aliquots of the resulting plasma stored frozen at −60 to −90° C.
# The plasma samples were analyzed by LC-MS/MS to determine concentrations of the test compounds. The in-life portion of the study and the bioanalysis of plasma samples was conducted at Wuxi (China).
# The pharmacokinetic parameters for the tested compounds were calculated by non-compartmental analysis using Phoenix WinNonlin software.
# [2] = target: T1, CK1α (Homo sapiens, UniProt P48729+Q96SW2); experiment: CK1α NanoBit Assay (HiBiT-tagged CSNK1A1 in HEK293 cells, luminescence); format: cell-based; conditions: 24 h
# T1 construct: HEK293 clonal lines with CRISPR KI HiBiT tag on CSNK1A1; host or cells: HEK293 clonal line, CRISPR knock-in HiBiT at the CSNK1A1 locus, stably expressing LgBiT
# T1 sequence (P48729 whole entry): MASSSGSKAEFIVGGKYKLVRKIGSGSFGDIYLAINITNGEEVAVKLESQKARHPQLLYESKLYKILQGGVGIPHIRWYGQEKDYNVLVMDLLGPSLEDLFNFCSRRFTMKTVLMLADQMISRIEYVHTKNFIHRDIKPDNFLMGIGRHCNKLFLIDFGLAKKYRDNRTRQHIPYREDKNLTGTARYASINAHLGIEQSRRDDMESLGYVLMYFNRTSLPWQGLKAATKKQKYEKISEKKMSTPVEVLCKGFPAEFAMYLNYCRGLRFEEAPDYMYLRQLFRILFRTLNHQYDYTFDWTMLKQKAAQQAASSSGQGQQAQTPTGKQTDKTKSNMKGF
# T1 sequence (Q96SW2 whole entry): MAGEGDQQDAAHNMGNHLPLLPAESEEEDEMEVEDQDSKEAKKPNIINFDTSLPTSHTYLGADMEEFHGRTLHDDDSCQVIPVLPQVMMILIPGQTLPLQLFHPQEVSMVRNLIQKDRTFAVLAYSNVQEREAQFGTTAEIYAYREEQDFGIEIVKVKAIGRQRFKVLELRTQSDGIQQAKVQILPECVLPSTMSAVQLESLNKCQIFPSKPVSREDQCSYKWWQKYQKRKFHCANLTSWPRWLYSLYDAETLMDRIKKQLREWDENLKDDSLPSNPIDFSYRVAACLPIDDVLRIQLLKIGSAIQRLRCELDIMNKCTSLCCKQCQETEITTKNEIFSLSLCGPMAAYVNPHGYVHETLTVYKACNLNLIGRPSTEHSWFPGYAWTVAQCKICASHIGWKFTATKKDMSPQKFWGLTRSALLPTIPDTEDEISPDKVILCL
# T1 sequence (Q16531 whole entry partner): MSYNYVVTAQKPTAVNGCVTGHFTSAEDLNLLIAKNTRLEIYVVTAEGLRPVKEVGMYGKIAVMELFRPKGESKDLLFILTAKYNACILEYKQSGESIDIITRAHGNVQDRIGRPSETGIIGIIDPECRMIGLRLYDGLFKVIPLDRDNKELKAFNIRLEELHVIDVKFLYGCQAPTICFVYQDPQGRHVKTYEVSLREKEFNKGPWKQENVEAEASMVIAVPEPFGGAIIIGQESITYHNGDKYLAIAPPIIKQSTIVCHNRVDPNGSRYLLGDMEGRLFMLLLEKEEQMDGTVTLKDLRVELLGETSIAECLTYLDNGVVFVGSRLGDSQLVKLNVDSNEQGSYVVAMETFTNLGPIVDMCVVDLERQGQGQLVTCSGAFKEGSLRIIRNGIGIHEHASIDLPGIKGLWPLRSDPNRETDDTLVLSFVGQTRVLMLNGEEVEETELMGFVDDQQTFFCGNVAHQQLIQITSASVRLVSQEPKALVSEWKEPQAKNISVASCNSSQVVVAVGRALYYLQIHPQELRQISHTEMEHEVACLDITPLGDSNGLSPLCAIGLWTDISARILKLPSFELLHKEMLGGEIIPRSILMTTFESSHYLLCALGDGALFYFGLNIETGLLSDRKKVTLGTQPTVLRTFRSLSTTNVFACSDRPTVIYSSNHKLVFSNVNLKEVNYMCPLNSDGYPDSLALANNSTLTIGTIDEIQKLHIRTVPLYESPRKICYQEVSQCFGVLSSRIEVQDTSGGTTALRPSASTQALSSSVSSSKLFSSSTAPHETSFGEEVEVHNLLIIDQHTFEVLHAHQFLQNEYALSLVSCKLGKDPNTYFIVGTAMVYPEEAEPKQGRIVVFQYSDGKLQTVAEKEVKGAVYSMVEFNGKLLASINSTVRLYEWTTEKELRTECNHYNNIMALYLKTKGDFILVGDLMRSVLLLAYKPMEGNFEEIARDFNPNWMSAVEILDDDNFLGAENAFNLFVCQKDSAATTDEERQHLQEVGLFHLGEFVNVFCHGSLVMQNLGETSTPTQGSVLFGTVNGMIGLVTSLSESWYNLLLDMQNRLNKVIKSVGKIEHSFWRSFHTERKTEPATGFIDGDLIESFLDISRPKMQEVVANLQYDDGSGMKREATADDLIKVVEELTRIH
# Procedure, shortened: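 HEK293 with endogenous HiBiT-tagged CSNK1A1 and stable LgBiT, live-cell Endurazine substrate; compound added at 10 or 30 μM final top concentration after 16 h plating, then 24 h at 37 °C. Luminescence normalised to plate controls; DC50 by 3-parameter logistic fit, hill slope 1.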
# [3] = system: LS180; experiment: Growth inhibition, CyQUANT Direct Cell Proliferation Assay, LS180; format: cell-based; conditions: Homo sapiens; LS180 cells, 120 to 168 hours
# Procedure: SKCO1, LS180, and LS174T cell lines were purchased from ATCC. CW2 cell line was purchased from Riken. GP2D cell line was purchased from Sigma/ECACC. All cell lines were cultured in manufacturer's recommended media at 37° C., 5% CO2. Briefly, cells were suspended in 200 μL of media and seeded at 300 to 1,800 cells per well in tissue culture treated 96-well plates with black walls and clear bottom. Plates were incubated overnight and initial (TO) read was performed the following day using CyQUANT Direct Cell Proliferation Assay Kit (Thermo Fisher Scientific) according to manufacturer's protocol. All compounds were solubilized in DMSO and prepared at 3-fold serial dilution, using 9 points starting at 30 μM as highest concentration, administered to cells and incubated for 120 to 168 hours, at which point CyQUANT assay measurement was performed using Acumen Cellista instrument (Ex/Em 480/520 nm). Media-only wells were used as blank, and 0.3% DMSO was used as DMSO-treated cell control. Growth inhibition (percent response) was calculated using the following formula in Excel: “=if ([Compound treated Day N]>[Untreated Day 0, AVG], ([Compound treated Day N]− [Untreated Day 0, AVG])/([Untreated Day N]−[Untreated Day 0, AVG])*100, ([Compound Treated Day N]−[Untreated Day 0, AVG])/([Untreated Day 0, AVG])*100)”. GI50 is the response corresponding to the 50% of untreated control.
# GI50 data are reported in Tables 4a, 4b, 4c, 4d, and 4e for compounds in Table 1. In Tables 4a, 4b, 4c, 4d, and 4e below, According to the code, A represents a GI50 value of ≤0.1 μM, B represents a GI50 value >0.1 μM and ≤1 μM, C represents an GI50 value >1 μM.
# [4] = target: T1, CK1α; experiment: Western blot of CK1α levels in HEK293 cell line; format: cell-based; conditions: cereblon present, 0.1, 1, 10 μM, 24 hours
# Procedure: (§1) FIG. 1 depicts effects of compound 101 on CK1α levels in an HEK293 cell line in comparison to effects of compound 101 on CK1α levels in a cereblon (CRBN) knock-out HEK293 cell line.
# (§2) HEK293 cell line is purchased from ATCC (CRL-1573). HEK293 CRBN knock out (k/o) cell line (B2) is generated internally using CRISPR/Cas9 method and clonally expanded. Cells are plated at 2×10^5 cells per well in 6-well tissue culture plates (VWR) in 2 ml of DMEM media (Gibco) containing 10% FBS (Gibco), and incubated for 16 hours at 37° C., 5% CO2. Compounds are added to final concentration of 0.1 μM, 1 μM, 10 μM (DMSO concentration is kept constant at 0.1%), following incubation at 37° C., 5% CO2 for additional 24 hours. Cell lysis is performed using RIPA buffer (Pierce) containing Halt™ Protease Inhibitor Cocktail (ThermoFisher Scientific). Lysates are boiled at 95° C. for 10 minutes and 12 μg of protein lysate per sample is resolved by SDS-PAGE using 12% gels (BioRad) and transferred to nitrocellulose membrane (BioRad). Membranes are blocked using LI-COR blocking buffer (LI-COR) at room temperature for 1 hour, followed by overnight incubation with rabbit anti-CK1α (Abcam ab206652), rabbit anti-CRBN (Sigma HPA045910) and mouse anti-α-tubulin (Sigma T9026) antibodies at 4° C. Secondary antibodies (LI-COR) are added for a hour at room temperature, followed by imaging with LI-COR imaging system Odyssey® CLx.
# [5] = target: T1, CK1α; experiment: Western blot of CK1α levels in cereblon (CRBN) knock-out HEK293 cell line; format: cell-based; conditions: 0.1, 1, 10 μM, 24 hours
# Procedure: as §1, §2
Structure (SMILES),Tmax [1] [h],AUC ([1]; Mean ± SD) [ng·h/mL],AUC(0-t) ([1]; Mean ± SD) [ng·h/mL],Cmax ([1]; Mean ± SD) [ng/mL],DC50 [2] [µM],GI50 [3] [nM],"effect on CK1α levels (Western blot, FIG. 1) [4]","effect on CK1α levels (Western blot, FIG. 1) [5]",half-life ([1]; Mean ± SD) [h]
"C[C@@H]1CN(c2ccc3c(c2)CN(C2CCC(=O)NC2=O)C3=O)C(=O)N1c1ccc(C2CC2)cc1 (stereo partly drawn) [Compound 125, 3-(5-((R)-3-(4-cyclopropylphenyl)-4-methyl-2-oxoimidazolidin-1-yl)-1-oxoisoindolin-2-yl)piperidine-2,6-dione]",1,1860 ± 495,1790 ± 504,717 ± 167,≤ 0.1,100 to 1000,,,
"O=C1CCC(N2Cc3cc(N4CCN(c5ccccc5)C4=O)ccc3C2=O)C(=O)N1 (stereo not shown) [Compound 101, 3-(1-oxo-5-(2-oxo-3-phenylimidazolidin-1-yl)isoindolin-2-yl)piperidine-2,6-dione]",,,,,≤ 0.1,> 1000,decreases CK1α levels,no effect on CK1α levels,
"C[C@@H]1CN(c2ccc3c(c2)CN(C2CCC(=O)NC2=O)C3=O)C(=O)N1c1ccccc1 (stereo partly drawn) [Compound 107, 3-(5-((R)-4-methyl-2-oxo-3-phenylimidazolidin-1-yl)-1-oxoisoindolin-2-yl)piperidine-2,6-dione]",1,5880 ± 1600,5590 ± 1830,1520 ± 262,≤ 0.1,,,,2.53 ± 0.37
